Laboratory results as given in patent publication US20090005398A1, “Methods For The Treatment of Central Nervous System Tumors” (priority 2007, published 2009).

Assays:
U-87MG = experiment: Multiple cell line screen, cell proliferation; type: cell-based; conditions: Homo sapiens, 72 h, glioblastoma, astrocytoma, nuclei count, 3 days
Description: (§1) Growth properties for multiple cell lines were used to determine two seeding densities for each cell line that would be used in the screen. Cell lines were thawed and grown to 70-80% confluency before being used in the assay. On day −1, cells were seeded at 2 densities in 384-well plates and incubated at 37° C. overnight. Stock compound plates were prepared in advance which contained dimethyl sulfoxide (DMSO) alone and a 9-point half-log decreasing dose range of the compound in DMSO. These plates were stored at −80° C. and each plate was only thawed once and used. On day 0, the main assay plates received compound or DMSO via a sonic delivery system (ECHO). The highest final concentration of compound of the dose range in the culture plates was 10 uM. These plates were cultured at 37° C. for 3 days.
(§2) On day 3, the compound treated plates were stained and fixed to measure proliferation, apoptosis, and mitotic index. A nuclear stain was used to identify cells in the wells. By counting the number of nuclei, the proliferation index of compound treated groups were calculated as a percentage relative to the DMSO control, which was set to 100%. The IC50 values were calculated using model 205 in ExcelFit.

DK-MG = experiment: Multiple cell line screen, cell proliferation; type: cell-based; conditions: 72 h; glioblastoma; nuclei count, 3 days
Description: as §1, §2

DBTRG-05MG = experiment: Multiple cell line screen, cell proliferation; type: cell-based; conditions: Homo sapiens, 72 h, glioblastoma, nuclei count, 3 days
Description: as §1, §2

D283Med = experiment: Multiple cell line screen, cell proliferation; type: cell-based; conditions: Homo sapiens, D283 Med, 72 h; medulloblastoma; nuclei count, 3 days
Description: as §1, §2

SW1088 [1] = experiment: Multiple cell line screen, cell proliferation; type: cell-based; conditions: Homo sapiens, SW1088, 72 h; astrocytoma; nuclei count, 3 days
Description: as §1, §2

CCF-SSTG1 = experiment: Multiple cell line screen, cell proliferation; type: cell-based; conditions: 72 h; astrocytoma; nuclei count, 3 days
Description: as §1, §2

SF-268 [2] = experiment: Multiple cell line screen, cell proliferation; type: cell-based; conditions: Homo sapiens, SF-268, 72 h; glioblastoma; nuclei count, 3 days
Description: as §1, §2

SF-539 [3] = experiment: Multiple cell line screen, cell proliferation; type: cell-based; conditions: Homo sapiens, SF-539, 72 h; astrocytoma; nuclei count, 3 days
Description: as §1, §2

SNB-19 [4] = experiment: Multiple cell line screen, cell proliferation; type: cell-based; conditions: Homo sapiens, SNB-19, 72 h; glioblastoma; nuclei count, 3 days
Description: as §1, §2

A172 [5] = experiment: Multiple cell line screen, cell proliferation; type: cell-based; conditions: Homo sapiens, A 172, 72 h; glioblastoma; nuclei count, 3 days
Description: as §1, §2

SNB-75 = experiment: Multiple cell line screen, cell proliferation; type: cell-based; conditions: Homo sapiens, SNB-75, 72 h; glioblastoma; nuclei count, 3 days
Description: as §1, §2

H4 [6] = experiment: Multiple cell line screen, cell proliferation; type: cell-based; conditions: 72 h; glioma; nuclei count, 3 days
Description: as §1, §2

SF-295 [7] = experiment: Multiple cell line screen, cell proliferation; type: cell-based; conditions: Homo sapiens, SF-295, 72 h; glioblastoma; nuclei count, 3 days
Description: as §1, §2

SW1088 [8] = experiment: Washout assay, recovery of cell growth (MTT); type: cell-based; conditions: SW1088, astrocytoma; 3 days exposure then washout
Description: (§3) Seven glioma cell lines that can double at least once over three days were thawed and grown to 70-80% confluency before being used in the assay. On day 1, for each cell line, 2-3×10^5 cells were seeded into each well in 6-well cell culture plates and incubated at 37° C. overnight. […] The plates were incubated at 37° C. for 3 days.
(§4) On day 5, the compound was efficiently washed four times with culture medium supplemented with 20% fetal bovine serum (FBS) and then washed once in buffered saline solution (PBS). The cells were trypsinized. For each of the concentrations, compound-treated cell lines were plated into five 96-well plates at 5000 cells per well. For the next 4 consecutive days, one plate of the cells was taken out of the incubator and cell proliferation was measured by MTT ELISA assay.
(§5) The washout assay is designed to follow the cells' recovery from exposure to the compound. Each glioma cell line was assayed at least twice. The criteria for evaluating sensitivity or resistance was Last Growth Back Concentration (LGC), if LGC<=30 nM, the cell line is considered sensitive; if LGC>=1 uM, it is considered resistant; if LGC is in between these two concentrations, the cell line is considered intermediate. Based on criteria set, all the glioma cell lines appeared to be sensitive to the compound of Example 1.

SF-268 [9] = experiment: Washout assay, recovery of cell growth (MTT); type: cell-based; conditions: SF-268, glioblastoma; 3 days exposure then washout
Description: as §3, §4, §5

SF-539 [10] = experiment: Washout assay, recovery of cell growth (MTT); type: cell-based; conditions: SF-539, astrocytoma; 3 days exposure then washout
Description: as §3, §4, §5

SNB-19 [11] = experiment: Washout assay, recovery of cell growth (MTT); type: cell-based; conditions: SNB-19, glioblastoma; 3 days exposure then washout
Description: as §3, §4, §5

A172 [12] = experiment: Washout assay, recovery of cell growth (MTT); type: cell-based; conditions: A172, glioblastoma; 3 days exposure then washout
Description: as §3, §4, §5

H4 [13] = experiment: Washout assay, recovery of cell growth (MTT); type: cell-based; conditions: H4, glioma; 3 days exposure then washout
Description: as §3, §4, §5

SF-295 [14] = experiment: Washout assay, recovery of cell growth (MTT); type: cell-based; conditions: SF-295, glioblastoma; 3 days exposure then washout
Description: as §3, §4, §5

[15] = High throughput solubility assay; type: physicochemical; conditions: aqueous buffer, pH 7.4, 0.05M phosphate buffer
Description: Two samples are prepared. One (the standard sample) contains the compound at a fixed concentration of 20 μM in an aqueous/organic mixed solvent cocktail. The other (the test sample) contains the compound at a maximum concentration of 200 μM in pH 7.4, 0.05M phosphate buffer and shaking for 24 h. The test sample is filtered by 0.45μ filter and then spun for 10 min to remove any undissolved solid. HPLC analyses are preformed on these samples. The peak areas are used for computing solubility.

- IC50 (U-87MG): < 50 nM
- IC50 (SW1088 [1]): < 50 nM
- solubility at 24 h [15]: > 100 µM
SMILES: C[C@@H](Oc1cc(-n2cnc3ccc(CN4CCN(C)CC4)cc32)sc1C(N)=O)c1ccccc1C(F)(F)F [Example 1, 5-{6-[(4-Methylpiperazin-1-yl)methyl]-1H-benzimidazol-1-yl}-3-{(1R)-1-[2-(trifluoromethyl)phenyl]ethoxy}thiophene-2-carboxamide]
- IC50 (DK-MG): < 50 nM
- IC50 (DBTRG-05MG): < 50 nM
- IC50 (D283Med): < 50 nM
- IC50 (CCF-SSTG1): < 50 nM
- IC50 (SF-268 [2]): < 50 nM
- IC50 (SF-539 [3]): < 50 nM
- IC50 (SNB-19 [4]): < 50 nM
- IC50 (A172 [5]): < 50 nM
- IC50 (SNB-75): 50 to 100 nM
- IC50 (H4 [6]): < 50 nM
- IC50 (SF-295 [7]): < 50 nM
- LGC (Last Growth Back Concentration) (SW1088 [8]): 10 nM
- LGC (Last Growth Back Concentration) (SF-268 [9]): 10 nM
- LGC (Last Growth Back Concentration) (SF-539 [10]): 30 nM
- LGC (Last Growth Back Concentration) (SNB-19 [11]): 10 nM
- LGC (Last Growth Back Concentration) (A172 [12]): <10 nM
- LGC (Last Growth Back Concentration) (H4 [13]): 10 nM
- LGC (Last Growth Back Concentration) (SF-295 [14]): 10 nM
